Experimental data from the NIST ThermoML archive (doi:10.1021/je3001969).
Numbers after ± are expanded uncertainties.

Experiment: xn = mol fraction of the nth substance listed
Conditions: Liquid, Pycnometric method

[C-]#[O+] [carbon monoxide] + CCC(=O)O
Conditions | mass density [kg/m3]
293.2 K, x1 = 0.0156 | 988.2 ± 10
293.2 K, x1 = 0.0211 | 983.1 ± 10
293.2 K, x1 = 0.0237 | 978.3 ± 10
293.2 K, x1 = 0.0298 | 970.5 ± 10
293.2 K, x1 = 0.0353 | 962.3 ± 10
293.2 K, x1 = 0.0418 | 950.4 ± 10
293.2 K, x1 = 0.0487 | 937.2 ± 10
293.2 K, x1 = 0.0596 | 919.7 ± 9.7
313.2 K, x1 = 0.0121 | 985.4 ± 11
313.2 K, x1 = 0.0146 | 978.3 ± 10
313.2 K, x1 = 0.0202 | 972.6 ± 10
313.2 K, x1 = 0.0269 | 965.1 ± 10
313.2 K, x1 = 0.0311 | 957.4 ± 10
313.2 K, x1 = 0.0387 | 945.2 ± 10
313.2 K, x1 = 0.0465 | 931.2 ± 10
313.2 K, x1 = 0.0557 | 913.3 ± 9.9
333.2 K, x1 = 0.0105 | 977.4 ± 10
333.2 K, x1 = 0.0125 | 971.2 ± 10
333.2 K, x1 = 0.0179 | 964.9 ± 9.9
333.2 K, x1 = 0.024 | 958 ± 10
333.2 K, x1 = 0.028 | 949.8 ± 10
333.2 K, x1 = 0.0341 | 938.5 ± 10
333.2 K, x1 = 0.0418 | 925.3 ± 10
333.2 K, x1 = 0.0508 | 907.7 ± 9.9
353.2 K, x1 = 0.0082 | 968.4 ± 10
353.2 K, x1 = 0.0108 | 963 ± 10
353.2 K, x1 = 0.0165 | 956.7 ± 9.7
353.2 K, x1 = 0.0225 | 952.3 ± 9.8
353.2 K, x1 = 0.0267 | 944.7 ± 10
353.2 K, x1 = 0.0331 | 933.4 ± 10
353.2 K, x1 = 0.0407 | 919.6 ± 10
353.2 K, x1 = 0.0478 | 902.3 ± 10

[C-]#[O+] [carbon monoxide] + COC=O
Conditions | mass density [kg/m3]
293.2 K, x1 = 0.0184 | 976.3 ± 9.8
293.2 K, x1 = 0.0214 | 976.1 ± 9.8
293.2 K, x1 = 0.0274 | 974.9 ± 9.8
293.2 K, x1 = 0.0342 | 971.3 ± 9.8
293.2 K, x1 = 0.0445 | 964.7 ± 9.8
293.2 K, x1 = 0.054 | 954.7 ± 9.8
293.2 K, x1 = 0.0735 | 932.5 ± 9.6
293.2 K, x1 = 0.0914 | 911.2 ± 9.4
313.2 K, x1 = 0.012 | 972.1 ± 9.7
313.2 K, x1 = 0.0196 | 971.5 ± 9.7
313.2 K, x1 = 0.0259 | 969.3 ± 9.8
313.2 K, x1 = 0.0358 | 962.4 ± 9.8
313.2 K, x1 = 0.0473 | 950.8 ± 9.7
313.2 K, x1 = 0.0598 | 937.3 ± 9.7
313.2 K, x1 = 0.0691 | 924.7 ± 9.7
313.2 K, x1 = 0.0812 | 904.3 ± 9.7
333.2 K, x1 = 0.0101 | 969.2 ± 9.7
333.2 K, x1 = 0.0136 | 968.7 ± 9.7
333.2 K, x1 = 0.0204 | 967.6 ± 9.7
333.2 K, x1 = 0.0286 | 960.7 ± 9.8
333.2 K, x1 = 0.0412 | 947.8 ± 9.7
333.2 K, x1 = 0.0496 | 937.5 ± 9.7
333.2 K, x1 = 0.0613 | 923 ± 9.7
333.2 K, x1 = 0.0744 | 901.3 ± 9.6
353.2 K, x1 = 0.0063 | 964.6 ± 9.7
353.2 K, x1 = 0.01 | 964.2 ± 9.7
353.2 K, x1 = 0.0159 | 963.2 ± 9.7
353.2 K, x1 = 0.0224 | 956.8 ± 9.8
353.2 K, x1 = 0.0297 | 948.7 ± 9.8
353.2 K, x1 = 0.0401 | 935.3 ± 9.7
353.2 K, x1 = 0.0549 | 916.8 ± 9.6
353.2 K, x1 = 0.0696 | 895.8 ± 9.4
